According to US6703207B2, “Method of screening substances with a glycidyl methacrylate covered styrene-glycidyl methacrylate polymer” (priority 1996, dated 2004):

Key:
[1] = tested on: protein with a molecular weight of about 170 kDa; assay: Isolation and competition with DQ2511-immobilized particles, lysate of rat DRG cell; type: binding; details: concentrated crude lysate of rat DRG cell
Procedure: Microspheres and the concentrated crude lysate of rat DRG cell were mixed and centrifuged to separate substances binding to DQ2511 which was immobilized on particles from the mixture. The procedures of binding, washing and detection of protein were performed as described above. […] In the above procedure, about 10 ng of 170 kDa DQ2511-binding protein was obtained from 1 mg of the DQ2511-immobilized SG-EGDE particles.

[2] = tested on: protein with a molecular weight of about 110 kDa; assay: Isolation and competition with DQ2511-immobilized particles, HeLa cytoplasmic fraction; type: binding; details: 1.0 M KCl eluate
Procedure: To these washed DQ2511-not-immobilized SG-EGDE particles and DQ2511-immobilized-SG-EGDE particles, 1 ml of the diluted cytoplasmic fraction was added and mixed. […] The wash solution and eluate solutions were stored at −80° C.

[3] = tested on: protein with a molecular weight of about 30 kDa; assay: Isolation and competition with H-9-immobilized SG-EGDE particles, HeLa cell nuclear extracts; type: binding; details: for elution of the 30 kDa protein from H-9-immobilized particles by free drug: elution with 3 mM drug; for yield of the 30 kDa protein in competition experiment: free drug added simultaneously
Procedure: HeLa cell nuclear extracts (NE) were prepared according to the method as described previously (Dignam, J. D., Lebovitz, R. M. and Roeder, R. G. (1983). Accurate transcription by RNA pol II in a soluble extracts from isolated mammalian nucleic. Nucleic Acids Res 11. 1475-1489).

[4] = molecular target: T1, Ref-1 redox activity on NF-κB (Homo sapiens, UniProt P27695); assay: Gel-shift assay of NF-κB DNA binding, NF-κB partially purified from Jurkat cells; type: biochemical
T1 construct: His6 (pET14b) (N); made in house; NF-κB: partially purified from Jurkat cells
T1 sequence (P27695 whole entry): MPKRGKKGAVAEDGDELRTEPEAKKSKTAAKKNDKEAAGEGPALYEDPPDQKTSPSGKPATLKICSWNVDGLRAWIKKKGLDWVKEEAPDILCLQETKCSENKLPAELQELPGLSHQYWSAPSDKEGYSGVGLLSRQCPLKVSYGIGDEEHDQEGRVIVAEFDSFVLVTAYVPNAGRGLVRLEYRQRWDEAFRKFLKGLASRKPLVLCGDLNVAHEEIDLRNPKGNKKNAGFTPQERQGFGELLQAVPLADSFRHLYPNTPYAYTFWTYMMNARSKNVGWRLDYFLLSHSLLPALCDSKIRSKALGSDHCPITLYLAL
Procedure: Prior to the conduction of the investigation, there are some considerations. […] There are two cases; one is an oxidized condition where these cystine residues are bound to each other through an S-S bond; and the other one is a reduced condition where they are individually existing with an SH-group. Therefore, NF-κB was treated with dithiothreitol (DTT) that is known as a reductant to make the state of NF-κB to be reduction.

[5] = tested on: proteins with a molecular weight of about 60, 38, and 27 kDa; assay: Isolation and competition with E3330-immobilized SG-EGDE particles, Jurkat nuclear extract; type: binding; details: 1M KCl eluate
Procedure: From the purification using P.1, there was not observed any specific protein band specifically eluted from E3330-immobilized particles.
The identification of the specific proteins were conducted by electrophoresis using SDS-PAGE.

[6] = molecular target: T2, Ref-1 (Homo sapiens, UniProt P27695); assay: AP nuclease activity of recombinant Ref-1 on AP plasmid DNA; type: biochemical; details: supercoiled AP plasmid DNA to open circular
T2 construct: His6 (pET14b) (N); made in house
T2 sequence (P27695 whole entry): as above
Procedure: First, concerning AP nuclease activity, the plasmid pBluescript SK+DNA (50 μg) was treated with 50 mM sodium citrate (pH 3.5) at 60° C. for 15 minutes, followed by dialysis in 50 mM Tris-HCl (pH 7.4) at 4° C. for about 24 hours.

[7] = tested on: NF-κB; assay: Transfection of NF-κB-regulated luciferase plasmid into Jurkat cells; type: cell-based; details: luciferase genes regulated by NF-κB
Source text: The functions of NH2-E3330 were compared with those of E3330 with respect to transcriptional activation abilities of NF-κB.

[8] = molecular target: T3, Ref-1 amino acid sequence 72 a.a. to 88 a.a. (Homo sapiens, UniProt P27695); assay: Binding of Ref-1 fragment 72 a.a. to 88 a.a. to E3330-immobilized particles
T3 construct: made in house

[9] = molecular target: protein with a molecular weight of about 38 kDa (Ref-1) (Homo sapiens, UniProt P27695); assay: Isolation and competitive binding-inhibition with E3330-immobilized SG-EGDE particles, Jurkat cytoplasmic P.5 fraction
Chain of protein with a molecular weight of about 38 kDa (Ref-1) (P27695 whole entry): as above

[10] = molecular target: recombinant protein of Ref-1 (Homo sapiens, UniProt P27695); assay: Binding of recombinant Ref-1 to E3330-immobilized particles
Chain of recombinant protein of Ref-1 (P27695 whole entry): as above

[11] = Solubility in water; type: physicochemical
[12] = molecular target: T2, Ref-1; assay: Far Western method using 14C-labeled E3330; type: binding
[13] = molecular target: T4, Ref-1 acting on p50/p50 homo-dimer or p65/p50 hetero-dimer (Homo sapiens, UniProt P27695); assay: Gel-shift assay with recombinant p65 and p50 subunits; type: biochemical
T4 construct: His6 (pET14b) (N); made in house; p50 and p65: baculovirus expression system
T4 sequence (P27695 whole entry): as above

With `CNC(=O)c1cccc(NCC(=O)NCCc2ccc(OC)c(OC)c2)c1` [DQ2511] the “protein obtained from immobilized particles (binding ability)” value [1] was “possessing DQ2511-binding ability” and the “protein band not observed in reference control (specific binding)” value (“protein band not observed” below) [2] was “specifically binding to DQ2511”.

In the case of `NCCNS(=O)(=O)c1cccc2cnccc12` [H-9], the “protein band not observed” value ([3]; HeLa nuclear extract, SDS-PAGE silver staining) is reported as “specifically binding to H-9”, the “elution of the 30 kDa protein from H-9-immobilized particles by free drug” value [3] is reported as “same protein band was obtained” and the “yield of the 30 kDa protein in competition experiment” value [3] is reported as “lower yield”.

In the case of `CNCCNS(=O)(=O)c1cccc2cnccc12` [H-8], the “elution of the 30 kDa protein from H-9-immobilized particles by free drug” value [3] is reported as “same protein band was obtained” and the “yield of the 30 kDa protein in competition experiment” value [3] is reported as “lower yield”.

With `CCCCCCCCC/C(=C\C1=C(C)C(=O)C(OC)=C(OC)C1=O)C(=O)O` [E3330] the “enhancement of the DNA-binding activity of NF-κB by Ref-1” value [4] was “reduced”, the “increase in the DNA-binding activity of NF-κB by DTT” value [4] was “did not inhibit” and the “protein bands not observed in reference control (specific binding)” value [5] was “specifically binding to E3330”. For the same compound, the “AP nuclease activity of Ref-1” value [6] was “not inhibited”, the “transcriptional activation abilities of NF-κB” value [7] was “reduced” and the “binding of recombinant protein possessing only 72 a.a. to 88 a.a. of Ref-1” value [8] was “confirmation of its binding ability against E3330”. The “protein band not observed” value ([9]; P.5 fraction, 1 M KCl eluate, SDS-PAGE silver staining) was “specifically binding to E3330”, the “yield of the about 38 kDa protein in competitive binding-inhibitory experiment” value ([9]; free E3330 at the same moles as immobilized NH2-E3330) was “lowered” and the “binding of recombinant Ref-1 to immobilized drug” value [10] was “specifically bound to E3330”. The solubility in water [11] was “insoluble in water”, the “binding in Far Western method” value [12] was “bound to Ref-1” and the “enhancement of DNA-binding ability of p50/p50 homo-dimer or p65/p50 hetero-dimer by Ref-1” value [13] was “reduced”.
